# Legend:
# [1] = Acute toxicity by intravenous route to rats; type: in vivo; details: rat, in vivo, oxalate acid form except those marked (hydrochloride)
# Description: (§1) Acute toxicity tests were carried out on rats and mice. The following results were registered in comparison with butoprozine. The compounds of the invention were used in oxalate acid form except those marked (x) which were tested in hydrochloride form.
# mice = experiment: Acute toxicity by intragastric route to mice; type: in vivo; details: hydrochloride form (marked)
# Description: as §1
# [2] = Acute toxicity by intragastric route to mice; type: in vivo; details: mouse, in vivo, po, oxalate acid form except those marked (hydrochloride)
# Description: as §1
# [3] = Acute toxicity by intravenous route to mice; details: mouse, in vivo, oxalate acid form except those marked (hydrochloride)
# Description: as §1
# [4] = test system: epinephrine-increased blood-pressure (anti-α effect); experiment: Antiadrenergic effect: anti-α effect (reduction of epinephrine-increased blood-pressure); type: in vivo; details: dog
# Method in brief: (§2)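 Pentobarbital-anaesthetized, atropinized dogs given an epinephrine dose (5–10 μg/kg) raising arterial pressure about 100 mm Hg, then test compound i.v. Reduction of the pressor response (anti-α) and of the ~70-beat tachycardia (anti-β) scored: + <50%, ++ ≥50%, +++ subtotal.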
# [5] = test system: blood-flow to the myocardium; experiment: Effect on blood-flow to the myocardium, anaesthetized dogs, intravenous; type: in vivo, dog
# Description: It was undertaken on anaesthetized dogs which received the substance under study by intravenous route. The intensity of the maximum effect on blood-flow to the myocardium was expressed in percentage of the corresponding value before injection. The time required for the maximum effect to decrease by 50% represented the duration of the effect. This time was measured in minutes.
# [6] = test system: epinephrine-accelerated heart rate (anti-β effect); experiment: Antiadrenergic effect: anti-β effect (reduction of epinephrine-accelerated heart rate); type: in vivo; details: dog; for inhibition in vivo at 5 mg/kg: dose 5 mg/kg i.v.; for Anti-β effect / inhibition in vivo at 10 mg/kg: dose 10 mg/kg i.v.
# Method in brief: as §2
# dog = experiment: Cardiac tolerance and general toxicity in long-term toxicity tests, oral, dog; details: in vivo
# ventricular fibrillation = experiment: Anti-arrhythmic properties, LAWSON test (chloroform-provoked arrhythmia), intragastric; type: in vivo; details: Mus musculus, po, mice, read-out: AD50 (dose protecting 50% of the animals against ventricular fibrillation)
# Description: The arrhythmia was provoked by making the animals inhale chloroform to total asphyxia and by later observing the ventricular rhythm. The dose of compound protecting 50% of the animals against ventricular fibrillation i.e. the AD50 was then recorded.
# rats = experiment: Acute toxicity by intravenous route to rats; type: in vivo; details: oxalate acid form except those marked (hydrochloride)
# Description: as §1
# [7] = Blood level after oral dose in the dog; type: in vivo; details: same oral dose
# [8] = test system: consumption of oxygen by the myocardium; experiment: Consumption of oxygen by the myocardium; details: in vivo
# Description: Furthermore, the indolizine derivatives present a β-antiadrenergic effect which is much more powerful than that of the derivatives of the aforesaid U.S. patent. At the minimum dose required to produce bradycardia, a reduction in arterial pressure, α-antiadrenergic and coronarodilatory effects to a significant degree, the β-antiadrenergic effect is, in fact, only slight in the case of the derivatives of the U.S. patent in question whereas it is much stronger with the indolizine derivatives of the invention. Moreover, the compounds of the invention reduce the consumption of oxygen by the myocardium calculated by multiplying the difference between the arterial and venous blood in oxygen by the coronary blood-flow. Thus, the compounds of the invention cause a considerable reduction in the arterio-venous difference which induces a decrease in the consumption of oxygen in spite of the increase of the coronary blood-flow.
# [9] = Canis lupus familiaris, iv, dose 10 mg/kg i.v., anaesthetized dog, read-out: Max. increase (blood-flow to the myocardium)
# [10] = dose 10 mg/kg i.v., anaesthetized dog
# [11] = Canis lupus familiaris, iv, dose 10 mg/kg i.v.
compound,measurement,setting,value
"CCCCN(CCCC)CCCOc1ccc(C(=O)c2c(C)c(Br)c3ccccn23)cc1Br.Cl [(*)Br/Br/H/CH3/n-C4H9/3, 1-Bromo-2-methyl-3-[4-(3-di-n-butylaminopropyl)-oxy-3-bromo-benzoyl]-indolizine hydrochloride]",LD50,[1],70 mg/kg
same,LD0,mice,> 5000 mg/kg
same,LD50,[2],> 5000 mg/kg
same,LD50,[3],50 mg/kg
"CCCCN(CCCC)CCCOc1ccc(C(=O)c2c(CC)c(Cl)c3ccccn23)cc1Cl [Cl/Cl/H/C2H5/n-C4H9/3, 1-Chloro-2-ethyl-3-[4-(3-di-n-butylaminopropyl)-oxy-3-chloro-benzoyl]-indolizine]",Anti-α effect,[4]; dose 0.5 mg/kg i.v.,+++
same,LD50,[1],50 mg/kg
same,change in vivo at 1 mg/kg,"[5]; Canis lupus familiaris, iv, dose 1 mg/kg i.v., anaesthetized dog, read-out: Max. increase (blood-flow to the myocardium)",40%
same,Time required to decrease to 50% (duration of effect),"[5]; dose 1 mg/kg i.v., anaesthetized dog",15 min
same,inhibition in vivo at 0.5 mg/kg,"[6]; Canis lupus familiaris, iv, dose 0.5 mg/kg i.v.",< 50%
"CCCCc1c(C)c2ccccn2c1C(=O)c1ccc(OCCCN(CCC)CCC)c(Br)c1 [CH3/Br/H/n-C4H9/n-C3H7/3, 1-Methyl-2-n-butyl-3-[4-(3-di-n-propylaminopropyl)-oxy-3-bromo-benzoyl]-indolizine]",LD50,[3],50 mg/kg
"CCCCN(CCCC)CCCOc1ccc(C(=O)c2c(CC)cc3ccccn23)cc1 [Butoprozine, 2-ethyl-3-[4-(3-di-n-butylaminopropyl)-oxy-benzoyl]-indolizine, reference compound]",Anti-α effect,[4]; dose 5 mg/kg i.v.,+++
same,Dose provoking ventricular arrhythmia (as low as),dog,50 mg/kg/day
same,Lethal dose,dog,50 to 100 mg/kg/day
same,LD50,[1],22 mg/kg
same,LD50,[2],1600 mg/kg
same,ED50,ventricular fibrillation,270 mg/kg
same,change in vivo at 10 mg/kg,[5]; [9],120%
same,Time required to decrease to 50% (duration of effect),[5]; [10],4 min
same,inhibition in vivo at 5 mg/kg,"[6]; Canis lupus familiaris, iv",< 50%
same,LD50,[3],25 mg/kg
"CCCCc1cc2ccccn2c1C(=O)c1ccc(OCCCN(CCC)CCC)c(C)c1 [H/CH3/H/n-C4H9/n-C3H7/3, 2-n-Butyl-3-[4-(3-di-n-propylaminopropyl)-oxy-3-methyl-benzoyl]-indolizine]",inhibition in vivo at 5 mg/kg,"[4]; Canis lupus familiaris, iv, dose 5 mg/kg i.v.",> 50%
same,inhibition in vivo at 5 mg/kg,"[6]; Canis lupus familiaris, iv",< 50%
same,LD50,[3],> 50 mg/kg
CCCCN(CCCC)CCCOc1ccc(C(=O)c2c(-c3ccc(Cl)cc3)c(Br)c3ccccn23)cc1Cl [Br/Cl/H/drawing 50/n-C4H9/3],LD0,rats,> 100 mg/kg
same,LD50,[1],> 100 mg/kg
"CCCCN(CCCC)CCCOc1ccc(C(=O)c2c(C)c(Br)c3ccccn23)cc1Br [Br/Br/H/CH3/n-C4H9/3, 1-Bromo-2-methyl-3-[4-(3-di-n-butylaminopropyl)-oxy-3-bromo-benzoyl]-indolizine]",Anti-α effect,[4]; dose 5 mg/kg i.v.,+++
same,Anti-α effect,[4]; dose 10 mg/kg i.v.,+++
same,Blood level compared with butoprozine,[7],three times higher
same,ED50,ventricular fibrillation,180 mg/kg
same,inhibition in vivo at 5 mg/kg,"[6]; Canis lupus familiaris, iv",> 50%
same,Anti-β effect,[6],+++
"CCCCN(CCCC)CCCOc1c(C)cc(C(=O)c2c(C)c(Br)c3ccccn23)cc1C [Br/CH3/CH3/CH3/n-C4H9/3, 1-Bromo-2-methyl-3-[4-(3-di-n-butylaminopropyl)-oxy-3,5-dimethyl-benzoyl]-indolizine]",Anti-α effect,[4]; dose 10 mg/kg i.v.,+++
same,ED50,ventricular fibrillation,< 100 mg/kg
same,inhibition in vivo at 10 mg/kg,"[6]; Canis lupus familiaris, iv",> 50%
"CCCCc1cc2ccccn2c1C(=O)c1ccc(OCCCN(CCCC)CCCC)c(Br)c1 [H/Br/H/n-C4H9/n-C4H9/3, 2-n-Butyl-3-[4-(3-di-n-butylaminopropyl)-oxy-3-bromo-benzoyl]-indolizine]",Anti-α effect,[4]; dose 5 mg/kg i.v.,+++
same,Anti-α effect,[4]; dose 10 mg/kg i.v.,+++
same,LD50,[1],60 mg/kg
same,ED50,ventricular fibrillation,170 mg/kg
same,change in vivo at 5 mg/kg,"[5]; Canis lupus familiaris, iv, dose 5 mg/kg i.v., anaesthetized dog, read-out: Max. increase (blood-flow to the myocardium)",70%
same,Time required to decrease to 50% (duration of effect),"[5]; dose 5 mg/kg i.v., anaesthetized dog",60 min
same,inhibition in vivo at 5 mg/kg,"[6]; Canis lupus familiaris, iv",> 50%
same,Anti-β effect,[6],+++
"CCCCN(CCCC)CCCOc1ccc(C(=O)c2c(CCC)c(Br)c3ccccn23)cc1Cl [Br/Cl/H/n-C3H7/n-C4H9/3, 1-Bromo-2-n-propyl-3-[4-(3-di-n-butylaminopropyl)-oxy-3-chloro-benzoyl]-indolizine]",Anti-α effect,[4]; dose 10 mg/kg i.v.,+++
same,change in vivo at 2.5 mg/kg,"[5]; Canis lupus familiaris, iv, dose 2.5 mg/kg i.v., anaesthetized dog, read-out: Max. increase (blood-flow to the myocardium)",50%
same,Time required to decrease to 50% (duration of effect),"[5]; dose 2.5 mg/kg i.v., anaesthetized dog",60 min
same,Anti-β effect,[6],+++
"CCCCc1c(Cl)c2ccccn2c1C(=O)c1ccc(OCCCN(CCCC)CCCC)cc1 [Cl/H/H/n-C4H9/n-C4H9/3, 1-Chloro-2-n-butyl-3-[4-(3-di-n-butylaminopropyl)-oxy-benzoyl]-indolizine]",Anti-α effect,[4]; dose 10 mg/kg i.v.,+++
same,LD50,[1],50 mg/kg
same,change in vivo at 10 mg/kg,[5]; [9],60%
same,Time required to decrease to 50% (duration of effect),[5]; [10],30 min
same,inhibition in vivo at 10 mg/kg,"[6]; Canis lupus familiaris, iv",> 50%
"CCCCN(CCCC)CCCOc1c(C)cc(C(=O)c2c(CC)c(I)c3ccccn23)cc1C [I/CH3/CH3/C2H5/n-C4H9/3, 1-Iodo-2-ethyl-3-[4-(3-di-n-butylaminopropyl)-oxy-3,5-dimethyl-benzoyl]-indolizine]",Anti-α effect,[4]; dose 10 mg/kg i.v.,+++
same,ED50,ventricular fibrillation,100 mg/kg
same,Anti-β effect,[6],+++
OCCN(CCO)c1nc(N2CCCCC2)c2nc(N(CCO)CCO)nc(N3CCCCC3)c2n1 [dipyridamole],Consumption of oxygen by the myocardium,[8],does not decrease the consumption of oxygen by the myocardium
"CCCCc1cc2ccccn2c1C(=O)c1ccc(OCCCN(CCCC)CCCC)c(Cl)c1.Cl [(*)H/Cl/H/n-C4H9/n-C4H9/3, 2-n-butyl-3-[4-(3-di-n-butylaminopropyl)-oxy-3-chloro-benzoyl]-indolizine hydrochloride]",LD0,rats,> 50 mg/kg
same,LD50,[1],> 50 mg/kg
"CCCCc1oc2ccccc2c1C(=O)c1cc(I)c(OCCN(CC)CC)c(I)c1 [Amiodarone, reference compound]",inhibition in vivo at 10 mg/kg,[4]; [11],> 50%
same,change in vivo at 10 mg/kg,[5]; [9],36%
same,"Coronarodilating effect / blood-flow to the myocardium, in words",[5]; comparative,cannot be regarded as a coronarodilator
same,Time required to decrease to 50% (duration of effect),[5]; [10],7 min
same,inhibition in vivo at 10 mg/kg,"[6]; Canis lupus familiaris, iv",> 50%
"CCCCN(CCCC)CCCOc1ccc(C(=O)c2c(CC)cc3ccccn23)cc1Cl.Cl [(*)H/Cl/H/C2H5/n-C4H9/3, 2-Ethyl-3-[4-(3-di-n-butylaminopropyl)-oxy-3-chloro-benzoyl]-indolizine hydrochloride]",LD50,[1],65 mg/kg
"CCCCN(CCCC)CCCOc1c(Cl)cc(C(=O)c2c(C(C)C)cc3ccccn23)cc1Cl [H/Cl/Cl/iso-C3H7/n-C4H9/3, 2-Isopropyl-3-[4-(3-di-n-butylaminopropyl)-oxy-3,5-dichloro-benzoyl]-indolizine]",inhibition in vivo at 10 mg/kg,[4]; [11],> 50%
same,LD50,[1],> 100 mg/kg
same,change in vivo at 10 mg/kg,[5]; [9],30%
same,Time required to decrease to 50% (duration of effect),[5]; [10],75 min
same,inhibition in vivo at 10 mg/kg,"[6]; Canis lupus familiaris, iv",> 50%
"CCCCN(CCCC)CCCOc1ccc(C(=O)c2c(-c3ccccc3)c(Br)c3ccccn23)cc1Cl.Cl [(*)Br/Cl/H/drawing 49/n-C4H9/3, 1-Bromo-2-phenyl-3-[4-(3-di-n-butylaminopropyl)-oxy-3-chloro-benzoyl]-indolizine hydrochloride]",LD50,[1],> 100 mg/kg

# Reference: patent US4520026A, “Indolizine derivatives and use as cardiovascular agents” (S. A. Labaz N.V., priority 1982, dated 1985)
